Laboratory results taken from patent publication US4371544A, “Pharmaceutical composition containing 1,1,3,5-substituted biuret compound” (Taiho Pharmaceutical Company Limited, priority 1979, dated 1983).
Read-outs that look alike come from different tables or passages of the source.

Experiments:
ddy strain of male mice [1] = experiment: Acute toxicity (oral, mice, 7 days observation); assay type: in vivo
Experimental: (§1) Next, several tests for determining the pharmacological properties, in that acute toxicity, anti-pyretic activity, analgesic activity and anti-inflammatory activity of the present 1,1,3,5-substituted biuret compounds of the formula (1) were conducted and the test results are shown in Table (2). In the tests, each compounds to be tested was used as a suspension in 0.25% carboxymethylcellulose solution. Methods for testing are explained as follows:
The ddy strain of male mice (body weight, 20-25 g) were used as test animals. The mice were fasted overnight and the compound to be tested was administered orally. […] The lethal dose (mg/kg, body weight) of the test compound was determined in connection with the death number of mice/the number of mice tested. In Table 2, the values indicated with Δ marks are 50% lethal dose, LD50 (mg/kg, body weight).

ddy strain of male mice [2] = experiment: Analgesic activity, acetic acid-induced stretching method; assay type: in vivo, mouse (ddy); settings: for ED50: oral, Δ mark, range in parentheses
Experimental: as §1
According to the method reported by Koster et al., [Fed. Proc., Vol. 18, pp. 412 (1959)], the ddy strain of male mice (body weight, 20-25 g) were used as test animals. The mice were fasted overnight, 100 mg/kg body weight of the test compound was administered orally, then 1 hour after the administration, 0.2 ml of 0.7% acetic acid solution was injected intraperitoneally. The acetic acid-induced stretching symptom of mouse was observed. Analgesic activity of the test compound was calculated as the inhibitory ratio (%). In Table 2, the values in parentheses show the data obtained from the test by using the dosage other than 100 mg/kg body weight. Further, the values indicated with Δ marks show 50% effective dose, ED50 (mg/kg body weight).

ddy strain of male mice [3] = experiment: Analgesic activity, Haffner method (morphine threshold dose, clamp); assay type: in vivo, mouse (ddy); settings: for inhibition in vivo at 200 mg/kg: 200 mg/kg oral; for ED50: oral, Δ mark, range in parentheses
Experimental: as §1
According to the modified method reported by Fujimura et. al., [Bulletin of the Institute for Chemical Research, Kyoto University, No. 25, pp. 36 (1951)], the ddy strain of male mice (body weight, 20-25 g) were used as test animals. The mice were fasted overnight, 100 mg/kg body weight of the test compound was administered orally, then 45 minutes after the administration, the threshold amount (1.5-2.5 mg/kg body weight) of morphine hydrochloride was injected subcutaneously. Then 1-hour pain reaction of the mouse caused by a clamp was observed. Analgesic activity of the test compound was calculated as the inhibitory ratio (%). In Table 2, the values in parentheses show the data obtained from the test by using the dosage other than 100 mg/kg body weight. Further, the values indicated with Δ marks show 50% effective dose, ED50 (mg/kg body weight).

[4] = tested on: Wistar strain of male rats; experiment: Anti-inflammatory activity (acute carrageenin-induced inflammatory test, hindpaw); assay type: in vivo, rat (Wistar)
Experimental: as §1
According to the method of acute carrageenin-induced inflammatory test [Folia Pharmacologia Japonica, Vol. 56, pp. 575 (1960)], the Wistar strain of male rats (body weight, 150-180 g) were used as test animals. The rats were fasted overnight, 100 mg/kg body weight of the test compound was administered orally, then 1 hour after the administration, 0.1 ml of 1% carrageenin solution, as the inflammation inducing agent, was injected subcutaneously to the hindpaw of the rat and the volume of the hindpaw was measured at time sequences, Anti-inflammatory activity of the test compound was calculated as inflammation inhibitory ratio (%) at 3 hours after the injection of inflammation inducing agent.

[5] = tested on: Wistar strain of male rats; experiment: Anti-pyretic activity (dry-yeast-induced fever); assay type: in vivo, rat (Wistar); settings: oral (dose not given), up to 4 hours after administration
Experimental: as §1
According to the method reported by Tanabe [Folia Pharmacologia Japonica, Vol. 73, pp. 803 (1977)], the Wistar strain of male rats (150-180 g, body weight) were used as test animals. The rats were fasted overnight, and 1 ml/100 g (body weight) of 10% dry-yeast suspension were subcutaneously injected on the back of the rats. Five hours after the injection, the test compound was administered orally, then the body temperature of the rat was measured at time sequences. Anti-pyretic activity of the test compound was determined as the FI (febril index) by integrating pyrogenetic curve up to 4 hours after the administration of the test compound with time, and indicated as inhibitory ratio (%) shown by the following formula, [formula]

[6] = Mus musculus, po, read-out: Analgesic activity, acetic acid-induced stretching method, inhibitory ratio
[7] = Mus musculus, read-out: Analgesic activity, Haffner method, inhibitory ratio
[8] = Rattus norvegicus, 100 mg/kg oral, 3 hours after carrageenin, read-out: Anti-inflammatory activity, inflammation inhibitory ratio
[9] = 100 mg/kg oral, 3 hours after carrageenin

Compound	Acute toxicity: death number of mice/number of mice tested (ddy strain of male mice [1]; 2000 mg/kg oral)	ED50 (ddy strain of male mice [2]; Mus musculus) [mg/kg]	ED50 (ddy strain of male mice [3]; Mus musculus) [mg/kg]	Anti-pyretic activity, inhibitory ratio (febril index) [5] [%]	Anti-inflammatory activity, inflammation inhibitory ratio [4, 9] [%]	further results
CN(C)C(=O)NC(=O)Nc1ccccc1 [Compound No. 1]						Acute toxicity: death number of mice/number of mice tested (ddy strain of male mice [1]; mouse, in vivo): 0/4; inhibition in vivo at 100 mg/kg (ddy strain of male mice [2]; [6]): 50%; inhibition in vivo at 200 mg/kg (ddy strain of male mice [3]; [7]): 50%; inhibition in vivo at 100 mg/kg [4, 8]: 42%
COc1ccc(NC(=O)NC(=O)N(C)C)cc1 [Compound No. 4, 1,1-Dimethyl-5-(4-methoxyphenyl)biuret]	0/4					inhibition in vivo at 100 mg/kg (ddy strain of male mice [2]; [6]): 75%; inhibition in vivo at 100 mg/kg (ddy strain of male mice [3]; Mus musculus, 100 mg/kg oral, 45 minutes before morphine hydrochloride, read-out: Analgesic activity, Haffner method, inhibitory ratio): 50%; inhibition in vivo at 100 mg/kg ([4]; Rattus norvegicus, po, 3 h, read-out: Anti-inflammatory activity, inflammation inhibitory ratio): 43%
Cc1ccc(NC(=O)NC(=O)N(C)C)cc1 [Compound No. 5]	0/4					inhibition in vivo at 100 mg/kg (ddy strain of male mice [2]; [6]): 25%; inhibition in vivo at 100 mg/kg ([4]; Rattus norvegicus, po, 2 h, read-out: Anti-inflammatory activity, inflammation inhibitory ratio): 23%
CN(C)C(=O)N(C)C(=O)Nc1ccccc1 [Compound No. 6, 1,1,3-trimethyl-5-phenylbiuret]		75	68	80	59	
CN(C)C(=O)N(C)C(=O)Nc1ccc(Cl)cc1 [Compound No. 12, 1,1,3-Trimethyl-5-(4-chlorophenyl)biuret]		12	20	84	47	
CN(C)C(=O)N(C)C(=O)Nc1ccc(Br)cc1 [Compound No. 16, 1,1,3-Trimethyl-5-(4-bromophenyl)biuret]		60	74	103		Anti-inflammatory activity, inflammation inhibitory ratio ([4]; 100 mg/kg oral, (2 hours)): 48%
CN(C)C(=O)N(C)C(=O)Nc1ccccc1C(F)(F)F [Compound No. 17, 1,1,3-Trimethyl-5-(2-trifluoromethylphenyl)biuret]				65	66	Acute toxicity: death number of mice/number of mice tested (ddy strain of male mice [1]; 1000 mg/kg oral): 1/4; Analgesic activity, acetic acid-induced stretching method, inhibitory ratio (ddy strain of male mice [2]; 100 mg/kg oral, 1 hour before acetic acid): 12.5%; Analgesic activity, Haffner method, inhibitory ratio (ddy strain of male mice [3]; 100 mg/kg oral, 45 minutes before morphine hydrochloride): 37.5%
COc1ccc(NC(=O)N(C)C(=O)N(C)C)cc1 [Compound No. 23, 1,1,3-Trimethyl-5-(4-methoxyphenyl)biuret]		39	80	75	33	
Cc1ccc(NC(=O)N(C)C(=O)N(C)C)cc1 [Compound No. 28, 1,1,3-Trimethyl-5-(4-methylphenyl)biuret]	0/4	33	80	52		Anti-inflammatory activity, inflammation inhibitory ratio ([4]; 100 mg/kg oral, (2 hours)): 23%
CN(C)C(=O)N(C(=O)Nc1ccccc1)c1ccccc1 [Compound No. 42, 1,1-dimethyl-3,5-diphenylbiuret]	3/4			14		Acute toxicity: death number of mice/number of mice tested (ddy strain of male mice [1]; 1000 mg/kg oral): 0/4; inhibition in vivo at 200 mg/kg (ddy strain of male mice [2]; [6]): 62.5%; inhibition in vivo at 200 mg/kg (ddy strain of male mice [3]; [7]): 50%; inhibition in vivo at 100 mg/kg [4, 8]: 34%
CCN(C)C(=O)NC(=O)Nc1ccccc1 [Compound No. 43, 1-ethyl-1-methyl-5-phenylbiuret]	0/4					inhibition in vivo at 100 mg/kg (ddy strain of male mice [2]; Mus musculus, 100 mg/kg oral, 1 hour before acetic acid, read-out: Analgesic activity, acetic acid-induced stretching method, inhibitory ratio): 50%; inhibition in vivo at 200 mg/kg (ddy strain of male mice [3]; [7]): 12.5%; inhibition in vivo at 200 mg/kg ([4]; Rattus norvegicus, 200 mg/kg oral, 3 hours after carrageenin, read-out: Anti-inflammatory activity, inflammation inhibitory ratio): 72%
